Assay results from US6388174B1, “Gene encoding α-subunit of rice anthranilate synthase and DNA relating thereto” (Hokko Chemical Industry Co., Ltd., priority 1997, dated 2002).

Assays:
rice callus cells [1] = experiment: Selection of transformed rice callus cells and plants, Agrobacterium method (vector pUb-OSASA1D); type: cell-based, rice (variety: Nihonbare)
Protocol: Preparation of Agrobacterium bacterium was carried out in the same manner as in Example 3(4) using the recombinant vector pUb-OSASA1D mentioned in the above (1). Preparation of rice callus cells was carried out in the same manner as in Example 3(5). And, gene introduction into the rice callus cells was carried out in the same manner as in Example 3(6).
The obtained calli as transformed with the recombinant vector were washed with sterilized water containing 500 mg/l carbenicillin, to remove the Agrobacterium bacterium. After removal of excess water, the calli (20 calli per petri dish, 500 calli in total) were transplanted to a solid medium as prepared by adding 30 g/l sucrose, 2 mg/l 2,4-PA, 500 mg/l carbenicillin, 2 g/l Gerite and 3×10^−4 M 5MT as a selective drug, to the inorganic salt composition of N6 medium. […]
(§1) After one month of cultivation, the number of the transformed calli thus selected was counted. […]
The transformed calli as selected by the above cultivation in view of their 5MT resistance were transplanted to a solid regeneration medium which was prepared by adding 30 g/l sucrose, 30 g/l sorbitol, 2 g/l casamino acid, 1 mg/l NAA, 2 mg/l BA, 4 g/l Gel lite and3×10^−4M 5MT to the inorganic salt composition of MS medium. […] The number of the transformed plants regenerated from the transformed calluses was counted. […]

rice callus cells [2] = experiment: Selection of transformed rice callus cells and plants, direct introduction using whiskers (vector pUBdD); type: cell-based, rice (variety: Nihonbare)
Protocol: Ripe seeds of rice (variety: Nihonbare) were hulled, and the resulting seeds with coats were sterilized by immersion in a 70% ethanol solution for 60 seconds and then in a sodium hypochlorite solution containing about 1% effective chlorine for 6 minutes, followed by washing with sterilized water.
The thus sterilized rice seeds were placed on a medium as prepared by adding 30 g/l sucrose, 2 mg/l 2,4-PA as a phytohormone and 8 g/l agar to the inorganic component composition of MS medium. Incubation of seeds was carried out at 28° C. for 45 days with irradiation with light at 2000 lx for 16 hours per day, to form callus. The formed calli were cut from the albumen of the seeds, and those calli having a size of 1 mm or less were obtained in an amount of 3 ml in term of PCV (Packed Cell Volume), with using a stainless steel sieve (mesh size: 1 mm).
Separately, […] of potassium titanate whiskers (LS20, Titan Kogyo K.K.) was put into a 1.5-ml tube, and 0.5 ml of ethanol was added thereto. The mixture was allowed to stand overnight, and ethanol was evaporated completely to obtain sterilized whiskers. To this tube containing the whiskers was added 1 ml of sterilized water, followed by sufficient stirring. […]
as §1

[3] = 30 days on regeneration medium with selective drug (3×10^−4 M 5MT, or 50 mg/l hygromycin in control group)

## Cc1ccc2[nH]cc(C[C@H](N)C(=O)O)c2c1 [Test Group, 5-methyltryptophan]
Rice callus cells [1]; 500 calli tested, one month on selective medium (3×10^−4 M 5MT, or 50 mg/l hygromycin in control group)
  Transformed Callus Cells Selected: 45
Rice callus cells [1]; [3]
  Transformed Plants Selected: 43
Rice callus cells [2]; 2000 divided cells tested, one month on selective medium (10^−4 M 5MT, or 50 mg/l hygromycin in control group)
  Transformed Callus Cells Selected: 102
Rice callus cells [2]; [3]
  Transformed Plants Selected: 85
